According to patent publication US5747447A, “Stable polypeptide composition” (COR Therapeutics, priority 1995, dated 1998):
Like-named read-outs stand apart in the source and are kept apart here. *1 amine or outer side, *2 acyl side, *3 side chain or, on linkers, in order; H or OH if unused. Where a SMILES comes first, the peptide text is derived from it. Bridges are numbered along the chain shown (N, C = ends). Where no end group is shown, it is not given here. [ ]: non-standard residue; d: D form. Phe(4-Cl) = N[C@@H](Cc1ccc(Cl)cc1)C(=O)O; X2 = CC(=N)NCCCC[C@H](N[*:1])C(=O)[*:2]; 2Nal = N[C@@H](Cc1ccc2ccccc2c1)C(=O)O; NMeR = CN[C@@H](CCCNC(=N)N)C(=O)O; NMeF = CN[C@@H](Cc1ccccc1)C(=O)O; hArg = N=C(N)NCCCC[C@H](N)C(=O)O; NMeL = CN[C@@H](CC(C)C)C(=O)O; Pen = CC(C)(S)[C@H](N)C(=O)O; NMeS = CN[C@@H](CO)C(=O)O; Pip = O=C(O)[C@@H]1CCCCN1; NMeA = CN[C@@H](C)C(=O)O; Aib = CC(C)(N)C(=O)O; Mpa = O=C(O)CCS; Sar = CNCC(=O)O

Tests used:
GP IIb-IIIa = target: T1, GP IIb-IIIa (Homo sapiens, UniProt P05106+P08514); type: binding; conditions: plate assays
T1 construct: GP IIb-IIIa, prepared in purified form; from tissue; own knowledge of the cited Fitzgerald et al. 1985 method
Procedure: In the assay, GP IIb-IIIa, prepared in purified form, for example as described by Fitzgerald, L. A., et al., Anal Biochem (1985) 151:169-177, incorporated herein by reference, is coated onto a solid support such as beads, test tubes, or microtiter plates. The coated support is then contacted with fibrinogen and with the test material and incubated for a sufficient time to permit maximal binding of fibrinogen to the immobilized GP IIb-IIIa. Fibrinogen is typically provided at a concentration of about 5-50 nM and the test material can, if desired, be added at a series of dilutions. Typical incubations are 2-4 hr at 35° C., the time and temperature being interdependent.
After incubation, the solution containing the fibrinogen and test material is removed and the level of binding of fibrinogen measured by quantitating bound fibrinogen to GP IIb-IIIa. Any suitable means of detection can be used, but it is convenient to employ labeled fibrinogen, for example using radioactive, fluorescent or biotinylated labels. Such methods are well known and need not be elaborated here.
Assessment of the results is aided by employing a control sample, usually identical to the test sample except that the test substance is absent. In this case, percent inhibition may be calculated using the basis, so that [formula] Other measures of inhibition effectiveness, such as IC50, can also be used.

[1] = target: ADP-induced human platelet aggregation (Homo sapiens, UniProt P05106+P08514); assay: standard aggregation inhibition assay (ADP-induced human platelet aggregation); type: cell-based; conditions: for IC20: PAI activity, Example 15, read-out: Appr.IC20; for IC50: ADP-induced human platelet aggregation, read-out: Appr, IC50
From the text: 2. Standard assays directly applied to platelet aggregation, such as those described by Gann, Z.-R., et al., J Biol Chem (1988) 263:19827-19832; Huang, T. F., et al., J Biol Chem (1987) 262:16157-16163; Biochemistry (1989) 28:661-666, cited above and incorporated herein by reference;

[2] = 25 mM citrate buffer pH 5.25, about 1 mg/mL
From the text: Test sample vials from each temperature condition were removed periodically and analyzed for stability by HPLC and visual inspection as described in Example 1.

Row | Compound | IC20 [1] | IC50 [1] | also measured
1 | C[C@H](NC(=O)[C@@H]1CSSC[C@H](NC(=O)CN)C(=O)N[C@@H](CCCCN)C(=O)NCC(=O)N[C@@H](CC(=O)O)C(=O)N[C@@H](Cc2c[nH]c3ccccc23)C(=O)N1)C(N)=O [Analog #7, G-C-K-G-D-W-C-A-NH2] (H-GCKGDWCA-NH2; disulfide 2-7 (inferred); N-terminus assumed) |  |  | differential fibrinogen/GP IIb-IIIa versus vitronectin/vitronectin receptor (in words) (GP IIb-IIIa): quite specific
2 | CN1CC(=O)N[C@H](C(N)=O)CSSCCC(=O)N[C@@H](CCCCNC(=N)N)C(=O)NCC(=O)N[C@@H](CC(=O)O)C(=O)N[C@@H](Cc2c[nH]c3ccccc23)C(=O)N2CCC[C@H]2C1=O [PAI 98, Mpr-Har-G-D-W-P-(Sar)-C-NH2] ([Mpa][hArg]GDWP[Sar]C-NH2; disulfide 1-8) | 0.31 µM |  | 
3 | N=C(N)NCCCC[C@@H]1NC(=O)[C@H](CO)NC(=O)CCSSC[C@@H](C(N)=O)NC(=O)[C@@H]2CCCN2C(=O)[C@H](Cc2c[nH]c3ccccc23)NC(=O)[C@H](CC(=O)O)NC(=O)CNC1=O [PAI 92, Mpr-S-Har-G-D-W-P-C-NH2] ([Mpa]S[hArg]GDWPC-NH2; disulfide 1-8) | 0.24 µM |  | 
4 | N=C(N)NCCCC[C@@H]1NC(=O)CCSSC[C@@H](C(N)=O)NC(=O)[C@@H]2CCCN2C(=O)[C@@H]2CCCN2C(=O)[C@H](Cc2c[nH]c3ccccc23)NC(=O)[C@H](CC(=O)O)NC(=O)CNC1=O [PAI 97, Mpr-Har-G-D-W-P-P-C-NH2] ([Mpa][hArg]GDWPPC-NH2; disulfide 1-8) | 1.4 µM |  | 
5 | C[C@@H]1NC(=O)CCSSC(C)(C)[C@@H](C(N)=O)NC(=O)[C@@H]2CCCN2C(=O)[C@H](Cc2c[nH]c3ccccc23)NC(=O)[C@H](CC(=O)O)NC(=O)CNC(=O)[C@H](CCCCN)NC1=O [PAI 101, Mpr-A-K-G-D-W-P-Pen-NH2] ([Mpa]AKGDWP[Pen]-NH2; disulfide 1-8) | 4.91 µM |  | 
6 | C[C@@H]1NC(=O)CCSSC[C@@H](C(N)=O)NC(=O)[C@@H]2CCCN2C(=O)[C@H](Cc2c[nH]c3ccccc23)NC(=O)[C@H](CC(=O)O)NC(=O)CNC(=O)[C@H](CCCCNC(=N)N)NC1=O [PAI 82, Mpr-A-Har-G-D-W-P-C-NH2] ([Mpa]A[hArg]GDWPC-NH2; disulfide 1-8) | 0.12 µM |  | stability by HPLC as in Example 1 ([2]; 5° C., Time (Days) 0): 99.6; stability by HPLC as in Example 1 ([2]; 5° C., Time (Days) 29): 98.1; stability by HPLC as in Example 1 ([2]; 5° C., Time (Days) 60): 98.3; stability by HPLC as in Example 1 ([2]; 5° C., Time (Days) 90): 97.3; stability by HPLC as in Example 1 ([2]; 30° C., Time (Days) 29): 97.3; stability by HPLC as in Example 1 ([2]; 30° C., Time (Days) 60): 97.3; stability by HPLC as in Example 1 ([2]; 30° C., Time (Days) 90): 96.5; stability by HPLC as in Example 1 ([2]; 45° C., Time (Days) 29): 95.4; stability by HPLC as in Example 1 ([2]; 45° C., Time (Days) 60): 92.6; stability by HPLC as in Example 1 ([2]; 45° C., Time (Days) 90): 90.6
7 | N=C(N)NCCCC[C@@H]1NC(=O)[C@@H]2CCCN2C(=O)CCSSC[C@@H](C(N)=O)NC(=O)[C@@H]2CCCN2C(=O)[C@H](Cc2c[nH]c3ccccc23)NC(=O)[C@H](CC(=O)O)NC(=O)CNC1=O [PAI 80, Mpr-P-Har-G-D-W-P-C-NH2] ([Mpa]P[hArg]GDWPC-NH2; disulfide 1-8) | 1.29 µM |  | 
8 | C[C@@H]1NC(=O)[C@@H]2CCCN2C(=O)[C@H](Cc2c[nH]c3ccccc23)NC(=O)[C@H](CC(=O)O)NC(=O)CNC(=O)[C@H](CCCCNC(=N)N)NC(=O)CCSSC[C@@H](C(N)=O)NC1=O [PAI 93, Mpr-Har-G-D-W-P-A-C-NH2] ([Mpa][hArg]GDWPAC-NH2; disulfide 1-8) | 3.33 µM |  | 
9 | Mpr-(N-Me-Ser)-Har-G-D-W-P-C-NH2 ([Mpa][NMeS][hArg]GDWPC-NH2; cysteine pairing not given here) [PAI 85] | 0.28 µM |  | 
10 | CN1C(=O)CCSSC[C@@H](C(N)=O)NC(=O)[C@@H]2CCCN2C(=O)[C@H](Cc2c[nH]c3ccccc23)NC(=O)[C@H](CC(=O)O)NC(=O)CNC(=O)[C@H](CCCCNC(=N)N)NC(=O)[C@@H]1CCCNC(=N)N [PAI 84, Mpr-(N-Me-Arg)-Har-G-D-W-P-C-NH2] ([Mpa][NMeR][hArg]GDWPC-NH2; disulfide 1-8) | 0.25 µM |  | 
11 | Mpr-Har-Sar-D-W-P-C-NH2 [Analog #68] |  | 3 µM | 
12 | C[C@H]1NC(=O)[C@H](CCCCN)NC(=O)[C@@H](N)CSSC[C@@H](C(N)=O)NC(=O)[C@@H]2CCCN2C(=O)[C@H](Cc2c[nH]c3ccccc23)NC(=O)[C@H](CC(=O)O)NC1=O [Analog #38, C-K-A.dagger.-D-W-P-C-NH2] (H-CK[dA]DWPC-NH2; disulfide 1-7) |  | > 200 µM | 
13 | CC1(C)SSCCC(=O)N[C@@H](CCCCN)C(=O)NCC(=O)N[C@@H](CC(=O)O)C(=O)N[C@@H](Cc2c[nH]c3ccccc23)C(=O)N2CCCC[C@H]2C(=O)N[C@@H]1C(N)=O [Analog #59, Mpr-K-G-D-W-(Pip)-Pen-NH2] ([Mpa]KGDW[Pip][Pen]-NH2; disulfide 1-7) |  | 1 µM | 
14 | CKGD[Phe(4-Cl)]P-NH2 [Analog #42] |  | 20 µM | 
15 | CC(=N)NCCCC[C@@H]1NC(=O)CCSSC(C)(C)[C@@H](C(N)=O)NC(=O)[C@@H]2CCCN2C(=O)[C@H](Cc2c[nH]c3ccccc23)NC(=O)[C@H](CC(=O)O)NC(=O)CNC1=O [Analog #69, Mpr-(Acetimidyl-Lys)-G-D-W-P-Pen-NH2] ([Mpa][X2]GDWP[Pen]-NH2; disulfide 1-7) |  | 0.5 µM | 
16 | CN1C(=O)[C@H](CC(=O)O)NC(=O)CNC(=O)[C@H](CCCCN)NC(=O)[C@@H](N)CSSC[C@@H](C(N)=O)NC(=O)[C@@H]2CCCN2C(=O)[C@@H]1Cc1ccccc1 [Analog #45, C-K-G-D-(NMePhe)-P-C-NH2] (H-CKGD[NMeF]PC-NH2; disulfide 1-7) |  | > 200 µM | 
17 | CN1CC(=O)N[C@@H](CC(=O)O)C(=O)N[C@@H](Cc2c[nH]c3ccccc23)C(=O)N2CCC[C@H]2C(=O)N[C@H](C(N)=O)CSSC[C@H](N)C(=O)N[C@@H](CCCCN)C1=O [Analog #43, C-K-(Sar)-D-W-P-C-NH2] (H-CK[Sar]DWPC-NH2; disulfide 1-7) |  | 50 µM | 
18 | CKGDIPC-NH2 (cysteine pairing not given here) [Analog #41] |  | 100 µM | 
19 | [Mpa]KGD[2Nal]P[Pen]-NH2 (cysteine pairing not given here) [Analog #57] |  | 1 µM | 
20 | C[C@H]1C(=O)N[C@@H](CCCCNC(=N)N)C(=O)NCC(=O)N[C@@H](CC(=O)O)C(=O)N[C@@H](Cc2c[nH]c3ccccc23)C(=O)N2CCC[C@H]2C(=O)N[C@H](C(N)=O)CSSCCC(=O)N1C [PAI 89, Mpr-(N-Me-Ala)-Har-G-D-W-P-C-NH2] ([Mpa][NMeA][hArg]GDWPC-NH2; disulfide 1-8) | 0.62 µM |  | 
21 | CC1(C)NC(=O)CCSSC[C@@H](C(N)=O)NC(=O)[C@@H]2CCCN2C(=O)[C@H](Cc2c[nH]c3ccccc23)NC(=O)[C@H](CC(=O)O)NC(=O)CNC(=O)[C@H](CCCCNC(=N)N)NC1=O [PAI 83, Mpr-Aib-Har-G-D-W-P-C-NH2] ([Mpa][Aib][hArg]GDWPC-NH2; disulfide 1-8) | 2.2 µM |  | 
22 | Ac-CKGDWPC-NH2 (cysteine pairing not given here) [Analog #47] |  | 2.5 µM | 
23 | CC(C)C[C@H]1C(=O)N[C@@H](CCCCNC(=N)N)C(=O)NCC(=O)N[C@@H](CC(=O)O)C(=O)N[C@@H](Cc2c[nH]c3ccccc23)C(=O)N2CCC[C@H]2C(=O)N[C@H](C(N)=O)CSSCCC(=O)N1C [PAI 88, Mpr-(N-Me-Leu)-Har-G-D-W-P-C-NH2] ([Mpa][NMeL][hArg]GDWPC-NH2; disulfide 1-8) | 0.84 µM |  | 
24 | CC1(C)SSCCC(=O)N[C@@H](CCCCN)C(=O)NCC(=O)N[C@@H](CC(=O)O)C(=O)N[C@@H]1C(N)=O [Analog #9, Mpr-K-G-D-Pen-NH2] ([Mpa]KGD[Pen]-NH2; disulfide 1-5) |  | 25 µM | 
25 | C[C@@H]1NC(=O)CCSSC(C)(C)[C@@H](C(N)=O)NC(=O)[C@@H]2CCCN2C(=O)[C@H](Cc2c[nH]c3ccccc23)NC(=O)[C@H](CC(=O)O)NC(=O)CNC(=O)[C@H](CCCCNC(=N)N)NC1=O [PAI 100, Mpr-A-(Har)-G-D-W-P-Pen-NH2] ([Mpa]A[hArg]GDWP[Pen]-NH2; disulfide 1-8) | 0.37 µM |  | 
26 | CHGDWPC-NH2 (cysteine pairing not given here) [Analog #46] |  | 200 µM | 
27 | CC1(C)SSCCC(=O)N[C@@H](CCCCN)C(=O)NCC(=O)N[C@@H](CC(=O)O)C(=O)N[C@@H](Cc2c[nH]c3ccccc23)C(=O)N2CCC[C@H]2C(=O)N[C@@H]1C(N)=O [Analog #51, Mpr-K-G-D-W-P-Pen-NH2] ([Mpa]KGDWP[Pen]-NH2; disulfide 1-7) |  | 0.75 µM | 
